Measurements published in patent US20110294992A1, “METAL RESPONSIVE MRI-AGENTS” (The Regents of the University of California, priority 2010, published 2011).
“And” between values parts separate entries of the source, which are not always exact repeats. Equal values may be shown once. Marks after values point to notes of the source that are not given here.

Key:
[1] = Nuclear magnetic relaxation dispersion (NMRD) profiles, Solomon-Bloembergen-Morgan fit; assay type: physicochemical; settings: for τs0 (electronic relaxation time at zero field) / r1p 20 MHz 25° C. / a (distance of closest approach of outer-sphere water protons) / Δ^2 (average quadratic transient zero field splitting) / τv (electronic correlation time) / q / τR (rotational correlation time): copper free; for r1p 20 MHz 25° C.: 0.5 mM, 20 mM HEPES pH 7; for a (distance of closest approach of outer-sphere water protons) / Δ^2 (average quadratic transient zero field splitting) / τv (electronic correlation time): best-fit value; for q: fixed in the fitting procedure; for τR (rotational correlation time): not experimentally determined, assumed equal to corresponding q ≠ 0 complex (CG5: average of the other complexes)
Description: FIG. 9. ^1H Nuclear magnetic relaxation dispersion profiles of CG3 and CG3+Cu^+ acquired at 25° C. The solid lines represent the best fit profiles.
As a secondary, independent set of experiments to further probe the mechanisms of copper ion sensing by the CG contrast agents, we also performed nuclear magnetic relaxation dispersion (NMRD) measurements of these sensors in the absence and in the presence of copper ions using a field cycling relaxometer (FIG. 9). The profiles obtained were analyzed following Solomon-Bloembergen-Morgan theory^36-38 for the inner-sphere relaxivity and the Freed model^115 for the outer-sphere relaxivity, fixing the diffusion coefficient (D) at […], the distance between Gd^3+ and the inner sphere water protons (r) at 3.1 Å, and the inner sphere exchange lifetime (τM) at 160 ns, the reported value for the parent complex Gd^3+-DO3A. Profiles were obtained for all compounds in the copper-free state. Profiles in the presence of Cu^n+ were obtained for CG2-4 (Cu^+) and CG6 (Cu^2+).
In fact, the measured outer-sphere relaxivities were so low that, in order to obtain a reasonable fit, the distance of closest approach of outer-sphere water protons (a) was allowed to vary. The distances obtained for the CG complexes (4.2-4.8 Å) were markedly longer than what is observed for typical Gd^3+ contrast agents with greater water access (3.8-4 Å). These values correlate with the copper-free relaxivities of CG2-6; longer a values give lower relaxivities and shorter a values give higher relaxivities. For Cu^+-sensing agents CG2-4, the estimated change in q of 2 as determined by DIS measurements was also observed in the fitted NMRD data. In fact, any attempt to fit the observed NMRD profiles with q=1 led to very poor agreement between experimental and calculated values. The change in q of 1 for CG6 upon addition of Cu^2+ as determined by NMRD is consistent with the lower turn-on response observed with this complex compared to CG2-4. The reduced q modulation for CG6 relative to CG2-4 could indicate that the carboxylic acid moiety used for Cu^2+ binding also interacts with the Gd^3+ center in the Cu^2+-bound state. The fitted rotational correlation times (τR) for copper-bound CG complexes all fall within the range expected for Gd^3+ complexes with molecular weights of 700-800 D. τR values for copper-free CG2-6 were fixed to values close to their copper-bound analogues as fits of NMRD data for q=0 complexes are not sensitive to small changes in τR. The values of Δ^2 (average quadratic transient zero field splitting), τv (electronic correlation time), and τs0 (electronic relaxation time at zero field), which govern the electronic relaxation time, are relatively similar to each other. These NMRD values are closer to those of Gd^3+-DTPA than Gd^3+-DOTA, reflecting the asymmetry of CG2-6.^64

[2] = Metal ion selectivity of relaxivity response (competing metal ions alone or with added copper); assay type: physicochemical; settings: relaxivity at 60 MHz, 20 mM HEPES, pH 7, 37° C.
Description: FIG. 6. Relaxivity responses of CG2 to various metal ions. White bars represent the addition of an excess of the appropriate metal ion (10 mM for Na^+, 2 mM for K^+, Mg^2+, and Ca^2+, and 0.2 mM for Fe^2+, Fe^3+, Cu^2+) to a 0.2 mM solution of CG2. Response to Zn^2+ was measured both at 0.2 mM Zn^2+ (Zn^2+1×) and 2 mM Zn^2+ (Zn^2+10×). Black bars represent the subsequent addition of 0.2 mM Cu^+ to the CG2 solution. Relaxivity measurements were acquired at 37° C. in 20 mM HEPES buffer, pH 7, at a proton Larmor frequency of 60 MHz.
The potential ability of this new family of CG sensors to sense bioavailable copper pools in either or both its predominant oxidation states represents a significant advance over the initial CG1 compound.

[3] = Longitudinal relaxivity (r1) from T1 measurements at 60 MHz, absence of copper; assay type: physicochemical; settings: for r1 (no Cu): no copper, 60 MHz, 20 mM HEPES buffer, pH 7, 37° C., 0.2 mM Gd^3+
Description: (§1) The longitudinal relaxivity values for the CG contrast agents in the absence or presence of copper ions were determined using T1 measurements at 60 MHz. Studies were performed at 37° C. in 20 mM HEPES buffered to pH 7, and solutions of the purified CG sensors for relaxivity experiments contained 0.2 mM Gd^3+ as determined by ICP-OES. Spectroscopic data are collected in Table 1.
Nuclear magnetic relaxation dispersion (NMRD) experiments provide supporting evidence for this proposal (vide infra).

[4] = Electrochemical Cu2+/Cu+ reduction potentials of copper-bound CG complexes; assay type: physicochemical; settings: PBS buffer, pH 7.4
Description: (§2) CG6 is a unique member of the CG family that is equally responsive to both Cu^+ and Cu^2+. Addition of either Cu^+ or Cu^2+ to CG6 triggers a maximum 73% relaxivity turn-on from r1=2.2 mM^−1s^−1 to r1=3.8 mM^−1s^−1. […] On the other hand, copper-bound CG6, which responds to both Cu^+ and Cu^2+, has the least positive Cu^2+/Cu^+ reduction potential at +0.13 V.

[5] = Longitudinal relaxivity (r1) turn-on response to Cu+ from T1 measurements at 60 MHz; assay type: physicochemical; settings: pH 7, 37° C.; for r1 (1 equiv Cu): 20 mM HEPES buffer
Description: as §1
Upon addition of up to 1 equiv of copper ions, the relaxivity values of the CG contrast agents increase, establishing the ability of these probes to sense copper using the MR modality (Table 1, FIG. 3). CG2, CG3, CG4, and CG5 respond to Cu^+ with relaxivity increases ranging from 92% to 360%. […] These values represent the largest relaxivity enhancements observed to date for metal-activated MR contrast agents and a ca. 9-fold improvement in copper ion response compared to CG1 (41% increase). The observed differences in turn-on Cu^+ responses for benzyl-substituted CG4 (290% increase) versus methyl-substituted CG5 (92% increase) with the same pyridyl-thioether receptor show the marked effects that small peripheral substitutions can have on relaxivity properties.

[6] = Apparent Kd for Cu+ by UV-visible absorption with competing ligand thiourea; assay type: binding; settings: 20 mM HEPES buffer, pH 7, 25° C., 1:1 stoichiometry assumed, read-out: Kd (apparent dissociation constant)
Description: FIG. 5. Normalized absorbance response of 0.2 mM CG2-6 to buffered Cu^+ (CG2-5) or Cu^2+ (CG6) solutions for Kd value determination. Spectra were acquired in 20 mM HEPES, pH 7.

[7] = Longitudinal relaxivity (r1) turn-on response to Cu2+ from T1 measurements at 60 MHz; assay type: physicochemical; settings: pH 7, 37° C.
Description: as §1, §2

[8] = Dysprosium-induced 17O NMR shift (DIS) experiments for q; assay type: physicochemical; settings: for q (estimated number of inner-sphere water molecules): calculated from q = 9 DyCl3
Description: FIG. 8. Plot of [DyCG2] vs. −Δ ppm of the ^17O signal of H2O in the absence and presence of 1 equiv Cu^+. Spectra were acquired at room temperature in 20 mM HEPES buffer, pH 7, at a ^17O Larmor frequency of 67.8 MHz.
To circumvent these issues, we turned our attention to an alternative method for obtaining q values, namely the application of ^17O NMR spectroscopy to Dy^3+ analogs of the CG sensors (DyCG2-6).^114 Specifically, interactions of water ligands with paramagnetic Dy^3+ ions lead to an upfield shift of the ^17O signals of H2O in a manner proportional to both the concentration of Dy^3+ and q. Moreover, this lanthanide-induced shift is largely insensitive to the non-water ligands coordinated to the paramagnetic metal center.^114 Dysprosium-induced shift (DIS) experiments for CG2 and CG3 were performed in 20 mM HEPES buffered to pH 7; CG4 and CG5 spectra were acquired in 10% acetonitrile in 20 mM HEPES buffered to pH 7 owing to solubility and stability of the Cu^+-bound complexes at higher Dy^3+ concentrations required for the DIS measurements (1-200 mmol/kg H2O). Dy concentrations were calculated using molality (with respect to H2O) since the ^17O shift represents the interaction between Dy^3+ and H2O; addition of CH3CN aids in stabilizing certain complexes but should not affect the DIS. The spectral results were calibrated to a DyCl3 standard (q=9) to determine the number of bound water molecules for the CG sensors with and without added Cu^+. A plot of varying DyCl3 concentrations versus DIS in pH 7 HEPES buffer has a slope of 324 ppm/(mol/kg H2O), which corresponds to a 36 ppm/(mol/kg H2O) shift per bound water molecule.
The effects of DyCG2 on the chemical shift of ^17O-labeled H2O were determined in the absence and presence of 1 equiv Cu^+ at various concentrations of Dy^3+ (FIG. 8). In the absence of Cu^+, the measured ^17O shift response for DyCG2 is 9 ppm/(mol/kg H2O), corresponding to q=0.3. When 1 equiv of Cu^+ is added, the observed shift response increases to 72 ppm/(mol/kg H2O), corresponding to q=2.0. […] DIS measurements of DyCG4 and DyCG5 without Cu^+ show slopes of 7 ppm/(mol/kg H2O) (q=0.2) and 12 ppm/(mol/kg H2O) (q=0.3), respectively. Cu^+ binding increases the DIS slopes for DyCG4 and DyCG5 to […] ([…]) and 41 ppm/(mol/kg H2O) (q=1.0), respectively.

[9] = 20 mM HEPES, pH 7, 1 equiv Cu^+
[10] = 10% CH3CN in 20 mM HEPES pH 7, 1 equiv Cu^+
[11] = 10% CH3CN in 20 mM HEPES pH 7, no Cu^+

Structure (SMILES)	τs0 (electronic relaxation time at zero field) [1]	r1p 20 MHz 25° C. [1]	a (distance of closest approach of outer-sphere water protons) [1]	Δ^2 (average quadratic transient zero field splitting) [1]	τv (electronic correlation time) [1]	q [1]	τR (rotational correlation time) [1]	redox specificity of relaxivity response (Cu^+ vs Cu^2+) [2]	r1 (no Cu) [3]	r1 (1 equiv Cu) [5]	other results
O=C([O-])CN1CCN(CC(=O)[O-])CCN(Cc2cccc(CN3CCSCCSCCSCC3)n2)CCN(CC(=O)[O-])CC1.[Gd+3] [CG3]	96 ps	1.6 mM⁻¹ s⁻¹	4.7 ± 0.09 Å	3.2 ± 0.7 10^19 s^−2	27 ± 4.4 ps	0^c	130^d ps	give turn-on relaxivity increases with Cu^+ but do not respond to Cu^2+	1.5 mM⁻¹ s⁻¹	6.9 mM^−1s^−1 and 6.9^b mM^−1s^−1	Cu^2+/+ E1/2 [4]: 0.58 V vs. SHE
CCSCCN(Cc1ccccc1)Cc1cccc(CN2CCN(CC(=O)[O-])CCN(CC(=O)[O-])CCN(CC(=O)[O-])CC2)n1.[Gd+3] [CG4]	99 ps	2.1 mM⁻¹ s⁻¹	4.2 ± 0.15 Å	3.4 ± 1.4 10^19 s^−2	25 ± 7.7 ps	0^c	130^d ps	give turn-on relaxivity increases with Cu^+ but do not respond to Cu^2+	1.7 mM⁻¹ s⁻¹	6.6^b mM^−1s^−1	Kd [6]: 0.014 nM; Cu^2+/+ E1/2 [4]: 0.40 V vs. SHE
CCSCCN(CC(=O)[O-])Cc1cccc(CN2CCN(CC(=O)[O-])CCN(CC(=O)[O-])CCN(CC(=O)[O-])CC2)n1.[Gd+3] [CG6]	61 ps	2.2 mM⁻¹ s⁻¹	4.2 ± 0.13 Å	8.4 ± 2.0 10^19 s^−2	16 ± 2.7 ps	0^c	80^d ps	responds to both Cu^+ and Cu^2+ with the same relaxivity turn-on	2.2 mM⁻¹ s⁻¹	3.8 mM^−1s^−1 and 3.8^b,c mM^−1s^−1	change in q ([1]; upon addition of Cu^2+, determined by NMRD): 1; % increase in r1 ([7]; 1 equiv Cu^2+ vs no Cu, 20 mM HEPES): 73%; r1 (1 equiv Cu) ([7]; 1 equiv Cu^2+, 20 mM HEPES buffer): 3.8 mM^−1s^−1 and 3.8^b,c mM^−1s^−1; % increase in r1 ([5]; 1 equiv Cu^+ vs no Cu, 20 mM HEPES): 73%
O=S(=O)([O-])[O-].[Cu+2] [CuSO4]	–	–	–	–	–	–	–	–	–	–	relaxivity ([3]; 20 mM HEPES buffer at 60 MHz and 37° C.): < 0.1 mM⁻¹ s⁻¹
CCSCCN(CCSCC)Cc1cccc(CN2CCN(CC(=O)[O-])CCN(CC(=O)[O-])CCN(CC(=O)[O-])CC2)n1.[Dy+3] [DyCG2]	–	–	–	–	–	–	–	–	–	–	−Δ ppm/[Dy] (DIS slope) [8, 9]: 72 ppm/(mol/kg H2O); q (estimated number of inner-sphere water molecules) [8, 9]: 2.0; −Δ ppm/[Dy] (DIS slope) ([8]; 20 mM HEPES, pH 7, no Cu^+): 9 ppm/(mol/kg H2O)
O=C([O-])CN1CCN(CC(=O)[O-])CCN(Cc2cccc(CN3CCSCCSCCSCC3)n2)CCN(CC(=O)[O-])CC1.[Dy+3] [DyCG3]	–	–	–	–	–	–	–	–	–	–	−Δ ppm/[Dy] (DIS slope) [8, 9]: 79 ppm/(mol/kg H2O); q (estimated number of inner-sphere water molecules) [8, 9]: 2.2; −Δ ppm/[Dy] (DIS slope) ([8]; 20 mM HEPES, pH 7, no Cu^+): 11 ppm/(mol/kg H2O)
CCSCCN(Cc1ccccc1)Cc1cccc(CN2CCN(CC(=O)[O-])CCN(CC(=O)[O-])CCN(CC(=O)[O-])CC2)n1.[Dy+3] [DyCG4]	–	–	–	–	–	–	–	–	–	–	−Δ ppm/[Dy] (DIS slope) [8, 10]: 84 ppm/(mol/kg H2O); q (estimated number of inner-sphere water molecules) [8, 10]: 2.1; −Δ ppm/[Dy] (DIS slope) [8, 11]: 7 ppm/(mol/kg H2O)
CCSCCN(C)Cc1cccc(CN2CCN(CC(=O)[O-])CCN(CC(=O)[O-])CCN(CC(=O)[O-])CC2)n1.[Dy+3] [DyCG5]	–	–	–	–	–	–	–	–	–	–	−Δ ppm/[Dy] (DIS slope) [8, 10]: 41 ppm/(mol/kg H2O); q (estimated number of inner-sphere water molecules) [8, 10]: 1.0; −Δ ppm/[Dy] (DIS slope) [8, 11]: 12 ppm/(mol/kg H2O)
